Assay results from US20260242391A1 (priority 2023, published 2026).

How the values were obtained:
HL-60 = HL-60 differentiation potency; assay type: cell-based; conditions: Homo sapiens
in vitro = conditions: human

EC50 (HL-60)	IC50 (in vitro)	SMILES
225 nM	> 20 µM	C[C@H]1[C@@H](OC[C@H]2CCC[C@@H](C(=O)O)C2)O[C@@H]2O[C@@]3(C)CC[C@H]4[C@H](C)CC[C@@H]1[C@@]24OO3 [Compound 135, (1R,3S)-3-((((3R,5aS,6R, 8aS,9R,10S,12R, 12aR)-3,6,9-trimethyldeca-hydro-12H-3,12-epoxy[1,2]dioxepino[4,3-i]isochromen-10-yl)oxy)methyl) cyclohexane-1-carboxylic acid]
197 nM	> 20 µM	C[C@H]1[C@@H](OC[C@H]2CC[C@@H](C(=O)O)C2)O[C@@H]2O[C@@]3(C)CC[C@H]4[C@H](C)CC[C@@H]1[C@@]24OO3 [Compound 136, (1R,3S)-3-((((3R,5aS,6R, 8aS,9R,10S,12R, 12aR)-3,6,9-trimethyldeca-hydro-12H-3,12-epoxy[1,2]dioxepino[4,3-i]isochromen-10-yl)oxy)methyl) cyclopentane-1-carboxylic acid]
86.8 nM	> 20 µM	C[C@H]1[C@H](OCc2c(F)cc(C(=O)O)cc2F)O[C@@H]2O[C@@]3(C)CC[C@H]4[C@H](C)CC[C@@H]1[C@@]24OO3 [Compound 137, 3,5-difluoro-4-((((3R,5aS,6R,8aS, 9R,10R,12R, 12aR)-3,6,9-trimethyldeca-hydro-12H-3,12-epoxy[1,2]dioxepino[4,3-i]isochromen-10-yl)oxy)methyl) benzoic acid]
120 nM	> 20 µM	C[C@H]1[C@@H](OC[C@@H]2CCC[C@H](C(=O)O)C2)O[C@@H]2O[C@@]3(C)CC[C@H]4[C@H](C)CC[C@@H]1[C@@]24OO3 [Compound 138, (1S,3R)-3-((((3R,5aS,6R, 8aS,9R,10S,12R, 12aR)-3,6,9-trimethyldeca-hydro-12H-3,12-epoxy[1,2]dioxepino[4,3-i]isochromen-10-yl)oxy)methyl) cyclohexane-1-carboxylic acid]

More lines, now with the values behind:

SMILES	EC50 (HL-60)	IC50 (in vitro)
C[C@H]1[C@@H](O[C@H]2CC[C@@H](CC(=O)O)C2)O[C@@H]2O[C@@]3(C)CC[C@H]4[C@H](C)CC[C@@H]1[C@@]24OO3 [Compound 130, 2-((1R,3S)-3-(((3R,5aS,6R,8aS, 9R,10S,12R, 12aR)-3,6,9-trimethyldeca-hydro-12H-3,12-epoxy[1,2]dioxepino[4,3-i]isochromen-10-yl)oxy)cyclo-pentyl)acetic acid]	241 nM	> 20 µM
C[C@H]1[C@@H](OC(C)(C)[C@H]2CC[C@@H](C(=O)O)CC2)O[C@@H]2O[C@@]3(C)CC[C@H]4[C@H](C)CC[C@@H]1[C@@]24OO3 [Compound 131, (1R,4s)-4-(2-(((3R,5aS,6R,8aS, 9R,10S,12R, 12aR)-3,6,9-trimethyldeca-hydro-12H-3,12-epoxy[1,2]dioxepino[4,3-i]isochromen-10-yl)oxy)propan-2-yl)cyclohexane-1-carboxylic acid]	159 nM	16.5 µM
C[C@H]1[C@@H](Oc2ccc(CC(=O)OC(C)(C)C)cc2)O[C@@H]2O[C@@]3(C)CC[C@H]4[C@H](C)CC[C@@H]1[C@@]24OO3 [Compound 132, tert-butyl 2-(4-(((3R,5aS,6R,8aS, 9R,10S,12R, 12aR)-3,6,9-trimethyldeca-hydro-12H-3,12-epoxy[1,2]dioxepino[4,3-i]isochromen-10-yl)oxy)phenyl) acetate]	12.4 nM	0.01 µM
C[C@H]1[C@@H](Oc2ccc(C(=O)N[C@H]3CC[C@@H](C(=O)O)C3)cc2)O[C@@H]2O[C@@]3(C)CC[C@H]4[C@H](C)CC[C@@H]1[C@@]24OO3 [Compound 134, (1R,3S)-3-(4-(((3R,5aS,6R,8aS, 9R,10S,12R, 12aR)-3,6,9-trimethyldeca-hydro-12H-3,12-epoxy[1,2]dioxepino[4,3-i]isochromen-10-yl)oxy)benzamido)cyclo-pentane-1-carboxylic acid]	24.4 nM	8 µM
